Reference: US9737073B2, “Herbicidal weed control from combinations of fluroxypyr and ALS inhibitors” (Dow AgroSciences LLC, priority 2014, dated 2017)
Several values for one entry are separate records, joined by “and”; a condition that tells them apart may be missing. Equal entries are not always repeated.

What was measured:
Assay type in all cases: in vivo
[1] = test system: Polygonum convolvulus L. (wild buckwheat, POLCO); assay: Postemergence herbicidal weed control, fluroxypyr-meptyl and thifensulfuron-methyl, field trials (Table 4); details: 21DAA1, 17.5 g ae/ha
Procedure: (§1) Field trials were conducted using standard herbicide small plot research methodology. Plots varied from 3×3.3 meter (m) to 4.5×10 m (width×length) with 4 replicates per treatment. The crops used in the field trials were grown using normal cultural practices for land preparation, fertilization, seeding and maintenance to ensure good growth of the crop and the weeds.
(§2) All treatments in the field trials were applied using either pressurized air or carbon dioxide (CO2) backpack or bicycle sprayers calibrated to apply 100-187 L/ha spray volume. Flat Fan spray nozzles were used in all trials, with water as the diluent applied at 275-300 kilopascals (kPa). Weed sizes at application ranged from 10 to 40 cm tall. Commercially available products of fluroxypyr-meptyl (STARANE™, 180 and 333 g ae/L EC), diclosulam (SPIDER® 84WG), and thifensulfuron-methyl (HARMONY® 75WG) were mixed in water at appropriately formulated product rates to achieve the desired rates based on a unit area of application (hectare) to achieve the desired rates as shown. No adjuvants were tank-mixed with any treatments applied in the field trials. Treatments were rated at 14-26 days after application as compared to the untreated control plants. Visual weed control was scored on a scale of 0 to 100 percent where 0 corresponds to no injury and 100 corresponds to complete kill.
(§3) The treated plots and control plots were rated blind at various intervals after application. Ratings were reported on a Percent (%) Visual Control basis, where 0 corresponds to no visual effect/weed control and 100 corresponds to complete kill of the target weeds.
(§4) Colby's equation was used to determine the herbicidal effects expected from the mixtures (Colby, S. R. Calculation of the synergistic and antagonistic response of herbicide combinations. Weeds 196715, 20-22). A t-test (alpha=0.05) between Colby predictions and observed combinations was used to test for significant differences indicating synergy or antagonism. The results presented in the Tables were significant according to the described criteria.
(§5) The following equation was used to calculate the expected activity of mixtures containing two active ingredients, A and B: Expected=A+B−(A×B/100) • A=observed efficacy of active ingredient A at the same concentration as used in the mixture; • B=observed efficacy of active ingredient B at the same concentration as used in the mixture.

[2] = test system: Chenopodium album (common lambsquarters, CHEAL); assay: as above; details: 21DAA1, 17.5 g ae/ha
Procedure: as §1, §2, §3, §4, §5

[3] = test system: Amaranthus retroflexus L. (redroot pigweed, AMARE); assay: as above; details: 21DAA1, 17.5 g ae/ha
Procedure: as §1, §2, §3, §4, §5

[4] = test system: Abutilon theophrasti (velvetleaf, ABUTH); assay: Postemergence herbicidal weed control, fluroxypyr-meptyl and cloransulam-methyl, field trials (Table 2)
Procedure: (§6) Seeds of the desired test plant species were planted in a peat-based potting soil, Metro-Mix 360® in plastic pots with a surface area of 128 square centimeters (cm^2). Metro-Mix 360® consists of formulated Canadian sphagnum peat moss, coarse perlite, bark ash, a starter nutrient charge (with gypsum), a slow-release nitrogen and dolomitic limestone. The plants were grown for 7-19 days in a greenhouse with an approximate 14-hour (h) photoperiod which was maintained at about 29° C. during the day and 26° C. during the night. Nutrients and water were added on a regular basis and supplemental lighting was provided with overhead metal halide 1000-Watt lamps as necessary. The plants were treated with postemergence foliar applications when they reached the third to fourth true leaf stage. All treatments were applied using a randomized complete block trial design, with 4 replications per treatment.
(§7) Treatments consisted of the compounds as listed in Tables 1 to 4, each compound applied alone and in combination. Commercially formulated products of fluroxypyr-meptyl (STARANE™, 333 grams acid equivalent per liter (g ae/L) EC), diclosulam (SPIDER® 84WG), cloransulam-methyl (FIRSTRATE™ 84WG), chlorimuron-ethyl (CLASSIC® 25WG) and thifensulfuron-methyl (HARMONY® 50SG). Formulated amounts of fluroxypyr-meptyl, diclosulam, cloransulam-methyl, chlorimuron-ethyl and thifensulfuron-methyl were placed in 60 milliliter (mL) glass vials and dissolved in a volume of 30 or 60 mL of a water solution containing Agri-dex crop oil concentrate in a 1% volume per volume (v/v) ratio. Compound requirements are based upon either a 30- or a 60-mL application volume at a rate of 200 liters per hectare (L/ha). Spray solutions of the mixtures were prepared by adding the stock solutions to the appropriate amount of dilution solution to form either a 30- or a 60-mL spray solution with active ingredients in single and two-way combinations. Formulated compounds were applied to the plant material with an overhead Generation III Research Sprayer manufactured by DeVries Manufacturing in Hollandale, Minn., USA. The track sprayer was equipped with an 8003E nozzle calibrated to deliver 200 L/ha at a spray height of 18 inches (43 centimeters (cm)) above average plant canopy.
(§8) The treated plants and untreated control plants were placed in a greenhouse as described above and watered by sub-irrigation to prevent wash-off of the test compounds.
(§9) Treatments were rated at 7 to 21 days after application (DAA) as compared to the untreated control plants. Visual weed control was scored on a scale of 0 to 100 percent where 0 corresponds to no injury and 100 corresponds to complete kill.
as §1
as §2, with “Visual weed control was scored on a scale of 0 to 100 percent where 0 corresponds to no injury and 100 corresponds to complete kill.” left out

[5] = test system: Amaranthus rudis Sauer (common waterhemp, AMATA); assay: as above
Procedure: as §6, §7, §8, §9, §1
as §2, with “Visual weed control was scored on a scale of 0 to 100 percent where 0 corresponds to no injury and 100 corresponds to complete kill.” left out

[6] = test system: Commelina benghalensis (tropical spiderwort, COMBE); assay: Postemergence herbicidal weed control, fluroxypyr-meptyl and diclosulam, greenhouse trials (Table 1)
Procedure: as §1, §2, §3, §4, §5

CCCCCCC(C)OC(=O)COc1nc(F)c(Cl)c(N)c1Cl (stereo not shown) [Fluroxypyr-meptyl, fluroxypyr-methylheptyl ester]
Fluroxypyr-meptyl Mean % weed control [1]: 2.5% | Fluroxypyr-meptyl Mean % weed control [2]: 3.8% | Fluroxypyr-meptyl Mean % weed control [3]: 3.8% | Fluroxypyr-meptyl Mean % weed control ([4]; 14DAA1, 25 g ae/ha): 68.3% and 70.0% | Fluroxypyr-meptyl Mean % weed control ([4]; 21DAA1, 25 g ae/ha): 71.7% and 72.5% | Fluroxypyr-meptyl Mean % weed control ([5]; 8DAA1, 25 g ae/ha): 42.5% | Fluroxypyr-meptyl Mean % weed control ([5]; 14DAA1, 25 g ae/ha): 21.3% | Fluroxypyr-meptyl Mean % weed control ([5]; 21DAA1, 25 g ae/ha): 22.5% | Fluroxypyr-meptyl Mean % weed control ([6]; 14DAA1, 200 g ae/ha): 27.5% | Fluroxypyr-meptyl Mean % weed control ([6]; 26DAA1, 200 g ae/ha): 25.0%
